Read-outs that look alike come from different tables or passages of the source.
Assays:
Type in all cases: in vivo
[1] = tested on: Digitaria sanguinalis (DIGSA); assay: greenhouse post-emergence herbicidal activity on DIGSA
Source text: (§1) For the post-emergence treatment, the test plants were first grown to a height of 3 to 20 cm, depending on the plant habit, and only then treated. Here, the herbicidal compositions were suspended or emulsified in water as distribution medium and sprayed using finely distributing nozzles.
(§2) The respective herbicides B and/or safener were formulated as 10% by weight strength suspension concentrate and introduced to the spray liquor with the amount of solvent system used for applying the active compound. Herbicides A, C and/or safener were used as commercially available formulations and introduced to the spray liquor with the amount of solvent system used for applying the active compound. In the examples, the solvent used was water.
(§3) The test period extended over 21 days. During this time, the plants were tended, and their response to the treatments with active compound was evaluated.
(§4) The evaluation for the damage caused by the chemical compositions was carried out using a scale from 0 to 100%, compared to the untreated control plants. Here, 0 means no damage and 100 means complete destruction of the plants.
(§5) The value E, which is to be expected if the activity of the individual compounds is just additive, was calculated using the method of S. R. Colby (1967) “Calculating synergistic and antagonistic responses of herbicide combinations”, Weeds 15, p. 22 ff. For two component mixtures the value E was calculated by the following formula E=X+Y−(X·Y/100)
(§6) For three component mixtures the value E was calculated by the following formula E=X+Y+Z−(XY+XZ+YZ)/100+(X·YZ/10000) where X=effect in percent using herbicide A at an application rate a; • Y=effect in percent using herbicide B at an application rate b; • Z=effect in percent using herbicide C at an application rate c; • E=expected effect (in %) of A+B at application rates a+b. or • E=expected effect (in %) of A+B+C at application rates a+b+c.
(§7) If the value observed in this manner is higher than the value E calculated according to Colby, a synergistic effect is present.
(§8) Tables 1 to 12 relate to the herbicidal activity of the individual actives and of their combinations in post-emergence application assessed 20 DAT.

[2] = tested on: Polygonum convolvulus (POLCO); assay: greenhouse post-emergence herbicidal activity on POLCO
Source text: as §1, §2, §3, §4, §5, §6, §7, §8

[3] = tested on: Chenopodium album (CHEAL); assay: greenhouse post-emergence herbicidal activity on CHEAL
Source text: as §1, §2, §3, §4, §5, §6, §7, §8

[4] = tested on: Abutilon theophrasti (ABUTH); assay: greenhouse post-emergence herbicidal activity on ABUTH; settings: for inhibition at 5 g/ha: 5 g ai/ha
Source text: as §1, §2, §3, §4, §5, §6, §7, §8

[5] = tested on: Alopecurus myosuroides (ALOMY); assay: greenhouse post-emergence herbicidal activity on ALOMY
Source text: as §1, §2, §3, §4, §5, §6, §7, §8

[6] = tested on: Galium aparine (GALAP); assay: greenhouse post-emergence herbicidal activity on GALAP; settings: for inhibition at 5 g/ha: 5 g ai/ha
Source text: as §1, §2, §3, §4, §5, §6, §7, §8

[7] = tested on: Avena fatua (AVEFA); assay: greenhouse post-emergence herbicidal activity on AVEFA; settings: 480 h, read-out: % activity 20 DAT
Source text: as §1, §2, §3, §4, §5, §6, §7, §8

[8] = tested on: Lolium multiflorum (LOLMU); assay: greenhouse post-emergence herbicidal activity on LOLMU; settings: for inhibition at 5 g/ha: 5 g ai/ha
Source text: as §1, §2, §3, §4, §5, §6, §7, §8

[9] = tested on: Matricaria inermis (MATIN); assay: greenhouse post-emergence herbicidal activity on MATIN
Source text: as §1, §2, §3, §4, §5, §6, §7, §8

[10] = tested on: Amaranthus retroflexus (AMARE); assay: greenhouse post-emergence herbicidal activity on AMARE; settings: 480 h, solo application, 100 g ai/ha, read-out: % activity 20 DAT
Source text: as §1, §2, §3
(§9) The evaluation for the damage caused by the chemical compositions was carried out using a scale from 0 to 100%, compared to the untreated control plants. […]
(§10) The value E, which is to be expected if the activity of the individual compounds is just additive, was calculated using the method of S. R. Colby (1967) “Calculating synergistic and antagonistic responses of herbicide combinations”, Weeds 15, p. […] For two component mixtures the value E was calculated by the following formula E=X+Y−(X·Y/100)
as §6, §7, §8

[11] = tested on: Setaria viridis (SETVI); assay: greenhouse post-emergence herbicidal activity on SETVI; settings: 480 h, solo application, 100 g ai/ha, read-out: % activity 20 DAT
Source text: as §1, §2, §3, §9, §10, §6, §7, §8

[12] = Digitaria sanguinalis, 480 h, read-out: % activity 20 DAT
[13] = Fallopia convolvulus, 480 h, read-out: % activity 20 DAT
[14] = Alopecurus myosuroides, 480 h, read-out: % activity 20 DAT, post-emergence, solo application, 6.25 g ai/ha
[15] = Digitaria sanguinalis, 480 h, solo application, 6.25 g ai/ha, read-out: % activity 20 DAT
[16] = Chenopodium album, 480 h, solo application, 6.25 g ai/ha, read-out: % activity 20 DAT
[17] = Alopecurus myosuroides, 480 h, solo application, 6.25 g ai/ha, read-out: % activity 20 DAT
[18] = Galium aparine, 480 h, solo application, read-out: % activity 20 DAT
[19] = Lolium multiflorum, 480 h, solo application, read-out: % activity 20 DAT
[20] = Abutilon theophrasti, 480 h, solo application, read-out: % activity 20 DAT

CCc1nc2c(Cl)cc(Cl)c(-c3nn(C)c(OC(F)F)c3Br)c2o1 [Compound B]
inhibition at 6.25 g/ha [1, 12]: 50%
inhibition at 6.25 g/ha [2, 13]: 90%
inhibition at 6.25 g/ha ([3]; Chenopodium album, 480 h, read-out: % activity 20 DAT, post-emergence, solo application, 6.25 g ai/ha): 85%
inhibition at 6.25 g/ha ([4]; Abutilon theophrasti, 480 h, read-out: % activity 20 DAT, post-emergence, solo application, 6.25 g ai/ha): 98%
inhibition at 6.25 g/ha [5, 14]: 20%
inhibition at 12.5 g/ha ([5]; Alopecurus myosuroides, 480 h, read-out: % activity 20 DAT, post-emergence, solo application, 12.5 g ai/ha): 35%

C#CCN1C(=O)COc2cc(F)c(-n3c(=O)n(C)c(=S)n(C)c3=O)cc21 [Compound D]
inhibition at 3.13 g/ha [1, 12]: 35%
inhibition at 3.13 g/ha ([6]; Galium aparine, 480 h, read-out: % activity 20 DAT, post-emergence, solo application, 3.13 g ai/ha): 30%
inhibition at 6.25 g/ha ([6]; Galium aparine, 480 h, read-out: % activity 20 DAT, post-emergence, solo application, 6.25 g ai/ha): 30%
inhibition at 6.25 g/ha [7]: 75%
inhibition at 3.13 g/ha ([8]; Lolium multiflorum, 480 h, read-out: % activity 20 DAT, post-emergence, solo application, 3.13 g ai/ha): 40%
inhibition at 3.13 g/ha [2, 13]: 95%
inhibition at 3.13 g/ha ([3]; Chenopodium album, 480 h, read-out: % activity 20 DAT, post-emergence, solo application, 3.13 g ai/ha): 45%
inhibition at 3.13 g/ha ([5]; Alopecurus myosuroides, 480 h, read-out: % activity 20 DAT, post-emergence, solo application, 3.13 g ai/ha): 30%
inhibition at 6.25 g/ha [5, 14]: 40%

CCNc1nc(Cl)nc(NC(C)C)n1 [atrazin]
inhibition at 62.5 g/ha ([1]; Digitaria sanguinalis, 480 h, solo application, 62.5 g ai/ha, read-out: % activity 20 DAT): 0%
inhibition at 62.5 g/ha ([3]; Chenopodium album, 480 h, solo application, 62.5 g ai/ha, read-out: % activity 20 DAT): 20%
inhibition at 125 g/ha ([3]; Chenopodium album, 480 h, solo application, 125 g ai/ha, read-out: % activity 20 DAT): 60%
inhibition at 250 g/ha ([5]; Alopecurus myosuroides, 480 h, solo application, 250 g ai/ha, read-out: % activity 20 DAT): 50%

COc1c(Cl)ccc(Cl)c1C(=O)O [dicamba]
inhibition at 25 g/ha ([9]; Matricaria, 480 h, read-out: % activity 20 DAT, post-emergence, solo application, 25 g ai/ha): 45%
inhibition at 50 g/ha ([8]; Lolium multiflorum, 480 h, solo application, 50 g ai/ha, read-out: % activity 20 DAT): 0%
inhibition at 50 g/ha ([3]; Chenopodium album, 480 h, solo application, 50 g ai/ha, read-out: % activity 20 DAT): 50%
inhibition at 50 g/ha ([4]; Abutilon theophrasti, 480 h, solo application, 50 g ai/ha, read-out: % activity 20 DAT): 50%
inhibition at 25 g/ha ([5]; Alopecurus myosuroides, 480 h, solo application, 25 g ai/ha, read-out: % activity 20 DAT): 10%

C#CCN1C(=O)COc2cc(F)c(N3C(=O)C4=C(CCCC4)C3=O)cc21 [flumioxazin]
inhibition at 6.25 g/ha [1, 15]: 15%
inhibition at 6.25 g/ha ([9]; Matricaria, 480 h, solo application, 6.25 g ai/ha, read-out: % activity 20 DAT): 65%
inhibition at 6.25 g/ha ([6]; Galium aparine, 480 h, solo application, 6.25 g ai/ha, read-out: % activity 20 DAT): 30%
inhibition at 12.5 g/ha ([6]; Galium aparine, 480 h, solo application, 12.5 g ai/ha, read-out: % activity 20 DAT): 30%
inhibition at 6.25 g/ha ([7]; solo application, 6.25 g ai/ha): 35%
inhibition at 6.25 g/ha [3, 16]: 0%
inhibition at 12.5 g/ha ([3]; Chenopodium album, 480 h, solo application, 12.5 g ai/ha, read-out: % activity 20 DAT): 30%
inhibition at 6.25 g/ha [5, 17]: 20%
inhibition at 12.5 g/ha ([5]; Alopecurus myosuroides, 480 h, solo application, 12.5 g ai/ha, read-out: % activity 20 DAT): 20%

COCc1cnc(C2=NC(C)(C(C)C)C(=O)N2)c(C(=O)O)c1 (centres unmarked) [imazamox]
inhibition at 10 g/ha ([1]; Digitaria sanguinalis, 480 h, solo application, 10 g ai/ha, read-out: % activity 20 DAT): 20%
inhibition at 5 g/ha ([9]; Matricaria, 480 h, solo application, 5 g ai/ha, read-out: % activity 20 DAT): 25%
inhibition at 5 g/ha [6, 18]: 20%
inhibition at 10 g/ha ([6]; Galium aparine, 480 h, solo application, 10 g ai/ha, read-out: % activity 20 DAT): 30%
inhibition at 5 g/ha [8, 19]: 40%
inhibition at 10 g/ha ([8]; Lolium multiflorum, 480 h, solo application, 10 g ai/ha, read-out: % activity 20 DAT): 60%
inhibition at 5 g/ha ([3]; Chenopodium album, 480 h, solo application, 5 g ai/ha, read-out: % activity 20 DAT): 15%
inhibition at 10 g/ha ([3]; Chenopodium album, 480 h, solo application, 10 g ai/ha, read-out: % activity 20 DAT): 30%
inhibition at 5 g/ha [4, 20]: 50%
inhibition at 10 g/ha ([5]; Alopecurus myosuroides, 480 h, solo application, 10 g ai/ha, read-out: % activity 20 DAT): 30%

Cc1cnc(C2=NC(=O)C(C)(C(C)C)N2)c(C(=O)O)c1 (centres unmarked) [imazapic]
inhibition at 5 g/ha ([1]; Digitaria sanguinalis, 480 h, solo application, 5 g ai/ha, read-out: % activity 20 DAT): 50%
inhibition at 5 g/ha [6, 18]: 55%
inhibition at 5 g/ha [8, 19]: 60%
inhibition at 20 g/ha ([3]; Chenopodium album, 480 h, solo application, 20 g ai/ha, read-out: % activity 20 DAT): 40%
inhibition at 5 g/ha [4, 20]: 60%
inhibition at 20 g/ha ([5]; Alopecurus myosuroides, 480 h, solo application, 20 g ai/ha, read-out: % activity 20 DAT): 45%

CS(=O)(=O)c1cc(C(F)(F)F)ccc1C(=O)c1cnoc1C1CC1 [isoxaflutole]
inhibition at 6.25 g/ha [1, 15]: 15%
inhibition at 25 g/ha ([2]; Fallopia convolvulus, 480 h, solo application, 25 g ai/ha, read-out: % activity 20 DAT): 45%
inhibition at 6.25 g/ha [3, 16]: 75%
inhibition at 6.25 g/ha ([4]; Abutilon theophrasti, 480 h, solo application, 6.25 g ai/ha, read-out: % activity 20 DAT): 55%
inhibition at 6.25 g/ha [5, 17]: 0%

CCC(CC)Nc1c([N+](=O)[O-])cc(C)c(C)c1[N+](=O)[O-] [pendimethalin]
inhibition at 100 g/ha ([9]; Matricaria, 480 h, solo application, 100 g ai/ha, read-out: % activity 20 DAT): 0%
inhibition at 800 g/ha ([9]; Matricaria, 480 h, solo application, 800 g ai/ha, read-out: % activity 20 DAT): 0%
inhibition at 200 g/ha ([8]; Lolium multiflorum, 480 h, solo application, 200 g ai/ha, read-out: % activity 20 DAT): 30%
inhibition at 100 g/ha [10]: 75%
inhibition at 400 g/ha ([5]; Alopecurus myosuroides, 480 h, solo application, 400 g ai/ha, read-out: % activity 20 DAT): 40%
inhibition at 100 g/ha [11]: 30%

O=C(Nc1ccc(F)cc1)c1cccc(Oc2cccc(C(F)(F)F)c2)n1 [picolinafen]
% activity 20 DAT ([1]; solo application, 6.25 g ai/ha): 30%
% activity 20 DAT ([1]; solo application, 12.5 g ai/ha): 45%
% activity 20 DAT ([9]; solo application, 50 g ai/ha): 60%
% activity 20 DAT ([6]; solo application, 6.25 g ai/ha): 30%
% activity 20 DAT ([8]; solo application, 12.5 g ai/ha): 10%
% activity 20 DAT ([2]; solo application, 50 g ai/ha): 80%
% activity 20 DAT ([3]; solo application, 12.5 g ai/ha): 30%
% activity 20 DAT ([4]; solo application, 6.25 g ai/ha): 30%
% activity 20 DAT ([4]; solo application, 25 g ai/ha): 60%
% activity 20 DAT ([5]; solo application, 6.25 g ai/ha): 0%
% activity 20 DAT ([5]; solo application, 25 g ai/ha): 0%
